ChEMBL document CHEMBL2057148, “Synthesis of a Microcystis aeruginosa predicted metabolite with antimalarial activity” (Bioorg Med Chem Lett, 2012)

Key:
[1] = system: Plasmodium falciparum; assay: Antimalarial activity against chloroquine-resistant Plasmodium falciparum K1 infected in human A-positive type erythrocytes assessed as [3H]hypoxanthine incorporation after 24 hrs by scintillation counting; format: functional, organism-based
[2] = system: Plasmodium falciparum; assay: Ratio of IC50 for aerucyclamide B to compound IC50 for chloroquine-resistant Plasmodium falciparum K1 infected in human A-positive type erythrocytes assessed as [3H]hypoxanthine incorporation after 24 hrs by scintillation counting; format: functional

CC[C@H](C)[C@@H]1NC(=O)c2csc(n2)[C@H]([C@@H](C)CC)NC(=O)c2csc(n2)CNC(=O)c2nc1oc2C [MACROCYCLE]
IC50 [1]: 180 nM
Ratio IC50 [2]: 4
